Data on 61 compounds can be found in patent US8975415B2, “Chromane compounds” (CoMentis, Inc., priority 2012, dated 2015).

Experiment [1] addresses T1, BACE1 (Homo sapiens (Human), UniProt P56817). As to the kind of experiment: Measurement of Aβ production inhibition in cell (SK-N-BE(2) neuroblastoma cells, Aβ40 ELISA). Conditions: Test Example 3 IC50, Aβ40 production, SK-N-BE(2) cells, 6 hours.
Target sequence in this assay (P56817 46-501): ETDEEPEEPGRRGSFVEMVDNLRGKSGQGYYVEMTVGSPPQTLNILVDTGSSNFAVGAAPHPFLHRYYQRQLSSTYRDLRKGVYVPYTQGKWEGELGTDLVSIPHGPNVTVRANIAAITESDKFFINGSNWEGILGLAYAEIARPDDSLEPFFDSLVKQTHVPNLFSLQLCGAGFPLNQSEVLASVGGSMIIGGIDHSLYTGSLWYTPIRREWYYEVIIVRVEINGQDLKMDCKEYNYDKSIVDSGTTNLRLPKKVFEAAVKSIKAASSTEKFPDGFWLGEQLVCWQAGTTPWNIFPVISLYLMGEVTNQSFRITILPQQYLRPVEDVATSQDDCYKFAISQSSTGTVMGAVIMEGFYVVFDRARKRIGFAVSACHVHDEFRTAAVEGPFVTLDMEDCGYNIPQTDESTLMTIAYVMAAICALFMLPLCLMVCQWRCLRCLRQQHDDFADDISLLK
Protocol: The potency of compounds against BACE1 activity was determined in a cellular assay of Aβ production. […] Test compounds were dissolved in dimethyl sulfoxide and diluted with dimethyl sulfoxide and put into RPMI1640/5% FBS/penicillin-streptomycin media (final dimethyl sulfoxide concentration is 0.5%). […] CellTiter-Glo Substrate was dissolved into CellTiter-Glo Buffer and added to the plates in 95 μL/well. After shaking the plates for 2 minutes, the whole sample was transferred into a white 96-well plate and luminescence was measured for ATP quantification as the cell viability. Aβ concentration measured by ELISA was normalized by the viability of the corresponding cells.
Experiment [2] deals with T1, BACE1. The experiment can be described thus: Measurement of BACE1 inhibition by fluorescence resonance energy transfer (FRET), MCA substrate. The settings on record: for IC50: read-out: Test Example 1 IC50, MCA-SEVNLDAEFK(DNP)-NH2 substrate, pH 4.4; for IC50 / Ki: FRET; for Ki: read-out: Test Example 1 BACE1 MCA Ki, MCA substrate.
Target sequence in this assay (P56817 75-416): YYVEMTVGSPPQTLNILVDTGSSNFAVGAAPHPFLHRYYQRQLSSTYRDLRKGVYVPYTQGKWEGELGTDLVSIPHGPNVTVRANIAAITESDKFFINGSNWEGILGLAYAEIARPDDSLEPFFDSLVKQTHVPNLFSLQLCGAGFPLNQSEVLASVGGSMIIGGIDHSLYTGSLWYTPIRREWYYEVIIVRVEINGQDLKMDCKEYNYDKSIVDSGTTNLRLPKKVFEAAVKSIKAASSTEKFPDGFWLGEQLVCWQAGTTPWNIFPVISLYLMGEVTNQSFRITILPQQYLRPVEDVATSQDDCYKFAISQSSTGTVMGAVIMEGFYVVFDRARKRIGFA

As usually defined, the IC50 is the point on the concentration scale where inhibition reaches its midpoint. Broadly, the Ki is the dissociation constant of the complex between target and ligand, obtained from inhibition or displacement. For orientation: inhibition means the relative decrease from the control value, in per cent.

For `NC1=NC2(CO1)c1cc(-c3cccc(F)c3)ccc1OC1(CCC1)C21COC1` (centres unmarked) [RP 125], the IC50 against BACE1 [1] came to 580 nM; on BACE1 [2], 2310 nM.
Take `CC1(C)Oc2ccc(-c3cccc(C(F)(F)F)c3)cc2C2(COC(N)=N2)C12COC2` (centres unmarked) [RP 141]: the IC50 is 1300 nM against BACE1 [1] and 903 nM on BACE1 [2].
`CC#Cc1cncc(-c2ccc3c(c2)C2(COC(N)=N2)C2(COC2)C2(CCC2)O3)c1` (centres unmarked) [RP 109]: it took 48 nM to reach half-maximal inhibition on BACE1 [1] (IC50). At BACE1 [2], the Ki turned out to be 120 nM and the IC50 stood at 152 nM.
For `CC1(C)Oc2ccc(-c3cccc(OCC(F)(F)F)c3)cc2C2(COC(N)=N2)C12COC2` (centres unmarked) [RP 143], the IC50 at BACE1 [2] was 1260 nM.
As for `NC1=NC2(CO1)c1cc(-c3cc(Cl)cnc3F)ccc1OC1(CCC1)C21COC1` (centres unmarked) [RP 73], the figures for the IC50 against BACE1 [1] and on BACE1 [2] were 70 nM and 827 nM, respectively.
With `COc1ccc(F)c(-c2ccc3c(c2)C2(COC(N)=N2)C2(COC2)C2(CCC2)O3)c1` (centres unmarked) [RP 136, 6′-(2-fluoro-5-methoxyphenyl)trispiro[cyclobutane-1,2′-chromene-4′,4″-[1,3]oxazole-3′,3′″-oxetan]-2″-amine], the figures for the IC50 at BACE1 [1] and on BACE1 [2] were 660 nM and 635 nM, respectively.
For the compound `NC1=NC2(CO1)c1cc(-c3cccnc3F)ccc1OCC21CC1` (centres unmarked) [RP 103], the IC50 at BACE1 [1] worked out at 450 nM; on BACE1 [2], 2190 nM.
Consider `NC1=NC2(CO1)c1cc(-c3cncnc3)ccc1OCC21COC1` (centres unmarked) [RP 36], for which the IC50 at BACE1 [1] came out at 810 nM; at BACE1 [2] it was 2900 nM.
For the compound `Cc1cc(F)cc(-c2ccc3c(c2)C2(COC(N)=N2)C2(COC2)C(C)(C)O3)c1` (centres unmarked) [RP 148], the values for the IC50 against BACE1 [1] and at BACE1 [2] were 480 nM and 614 nM, respectively.
In the case of `COc1ccc(F)c(-c2ccc3c(c2)C2(COC(N)=N2)C2(COC2)CO3)c1` (centres unmarked) [RP 33], the figures for the IC50 on BACE1 [1] and on BACE1 [2] were 950 nM and 1520 nM, respectively.
In the same order, the values of `N#C/C=C/c1cccc(-c2ccc3c(c2)C2(COC(N)=N2)C2(COC2)C2(CCC2)O3)c1` (centres unmarked) [RP 132] are 1200 nM and 2450 nM.
On to `NC1=NC2(CO1)c1cc(Nc3ccccn3)ccc1OCC21COC1` (centres unmarked) [RP 25], for which the half-maximal inhibitory concentration (IC50) at BACE1 [2] stood at 36900 nM.
With `COc1cccc(-c2ccc3c(c2)C2(COC(N)=N2)C2(COC2)C(C)(C)O3)c1` (centres unmarked) [RP 142], the IC50 at BACE1 [1] was 150 nM; at BACE1 [2] it was 401 nM.
For the compound `CC(C)CC1Oc2ccc(Br)cc2C2(COC(N)=N2)C12COC2` (single isomer, unassigned) [RP 13a], the IC50 at BACE1 [2] came to 11100 nM.
Consider `NC1=NC2(CO1)c1cc(-c3cccnc3C(F)(F)F)ccc1OC1(CCC1)C21COC1` (centres unmarked) [RP 212], for which, at BACE1 [2], the IC50 was found to be 17600 nM.
For the compound `N#Cc1cncc(-c2ccc3c(c2)C2(COC(N)=N2)C2(COC2)C2(CCC2)O3)c1` (centres unmarked) [RP 120], the IC50 turned out to be 2300 nM against BACE1 [1] and 1890 nM on BACE1 [2].
On to `NC1=NC2(CO1)c1cc(-c3cncnc3)ccc1OCC21CCCO1` (centres unmarked) [RP 97], for which the half-inhibitory concentration (IC50) on BACE1 [1] was determined as 2600 nM; on BACE1 [2], 20200 nM.
`CC1(C)Oc2ccc(-c3cccc(Cl)c3)cc2C2(COC(N)=N2)C12COC2` (centres unmarked) [RP 139] gave an IC50 on BACE1 [1] of 140 nM. For the same compound, at BACE1 [2], the inhibition constant Ki stood at 215 nM and the IC50 turned out to be 252 nM.
`NC1=NC2(CO1)c1cc(-c3ccc(F)nc3F)ccc1OC1(CCC1)C21COC1` (centres unmarked) [RP 121]: the IC50 on BACE1 [2] was 3370 nM.
As to `CCC1Oc2ccc(Br)cc2C2(COC(N)=N2)C12COC2` (single isomer, unassigned) [RP 9b], the IC50 on BACE1 [2] was determined as 24400 nM.
Consider `NC1=NC2(CO1)c1cc(Br)ccc1OCC21CCC1` (centres unmarked) [RP 8], for which, on BACE1 [2], the IC50 amounted to 61300 nM.
For the compound `NC1=NC2(CO1)c1cc(Br)ccc1OC(C1CC1)C21COC1` (single isomer, unassigned) [RP 12a], the IC50 on BACE1 [2] came out at 38700 nM.
Still for that read-out and setting: the same measure for `NC1=NC2(CO1)c1cc(Br)ccc1OCC21CCCO1` (single isomer, unassigned) [RP 1b, 6′-bromo-4,5-dihydro-3H-dispiro[furan-2,3′-chromene-4′,4″-[1,3]oxazol]-2″-amine]: 138000 nM; for `CC1(C)Oc2ccc(-c3ccnc(Cl)c3Cl)cc2C2(COC(N)=N2)C12COC2` (centres unmarked) [RP 159]: 2120 nM; for `NC1=NC2(CO1)c1cc(-c3cncnc3)ccc1OC(C1CC1)C21COC1` (centres unmarked) [RP 89]: 4670 nM.
For `COc1cc(-c2ccc3c(c2)C2(COC(N)=N2)C2(COC2)C(C)(C)O3)c(Cl)cn1` (centres unmarked) [RP 162], at BACE1 [2], the half-inhibitory concentration (IC50) was 1040 nM.
As to `CCCC1Oc2ccc(Br)cc2C2(C=C(N)OC2)C12COC2` (single isomer, unassigned) [RP 11b], the IC50 at BACE1 [2] came out at 17400 nM.
On to `NC1=NC2(CO1)c1cc(Br)ccc1OCC21CC(F)(F)C1` (centres unmarked) [RP 188], for which the IC50 on BACE1 [2] stood at 50600 nM.
For `NC1=NC2(CO1)c1cc(Br)ccc1OCC21CC1` (centres unmarked) [RP 17], on BACE1 [2], the IC50 worked out at 30200 nM.
For the compound `CCC1Oc2ccc(Br)cc2C2(COC(N)=N2)C12COC2` (single isomer, unassigned) [RP 9a], the IC50 on BACE1 [2] came out at 17300 nM.
Take `CCC/C=C/c1ccc2c(c1)C1(COC(N)=N1)C1(COC1)C(C)(C)O2` (centres unmarked) [RP 167]: on BACE1 [2], the IC50 turned out to be 869 nM.
`COCCCc1ccc2c(c1)C1(COC(N)=N1)C1(COC1)CO2` (centres unmarked) [RP 35]: the IC50 on BACE1 [2] was 26000 nM.
On the same count and under the same terms, in the case of `CCSc1cccc(-c2ccc3c(c2)C2(COC(N)=N2)C2(COC2)C(C)(C)O3)c1` (centres unmarked) [RP 145] it was 933 nM; in that of `CC1CC=C(c2ccc3c(c2)C2(COC(N)=N2)C2(COC2)C(C)(C)O3)CC1` (centres unmarked) [RP 166], 3630 nM.
Regarding `CC1(C)Oc2ccc(-c3cncc(C#N)c3)cc2C2(COC(N)=N2)C12COC2` (centres unmarked) [RP 160], at BACE1 [2], the IC50 amounted to 981 nM.
For the compound `NC1=NC2(CO1)c1cc(-c3cncnc3)ccc1OCC21CCCO1` (centres unmarked) [RP 98], at BACE1 [2], the IC50 stood at 64100 nM.
On to `NC1=NC2(CO1)c1cc(NC(=O)c3ccc(Cl)cn3)ccc1OCC21CC1` (centres unmarked) [RP 32], for which the Ki at BACE1 [2] stood at 378 nM.
Take `NC1=NC2(CO1)c1cc(-c3ccccc3)ccc1OC1(CCC1)C21COC1` (centres unmarked) [RP 123]: the IC50 at BACE1 [2] amounted to 3390 nM.
As for `NC1=NC2(CO1)c1cc(Br)ccc1OCC21COC1` (centres unmarked) [RP 2], at BACE1 [2], the IC50 is 59600 nM.
As to `NC1=NC2(COC1)c1cc(Br)ccc1OCC21COC1` (centres unmarked) [RP 114, 6′-bromo-6H-dispiro[1,4-oxazine-3,4′-chromene-3′,3″-oxetan]-5-amine], on BACE1 [2], the IC50 turned out to be 68300 nM.
Regarding `NC1=NC2(CO1)c1cc(Br)c(F)cc1OCC21CC1` (centres unmarked) [RP 18], the 50% inhibitory concentration (IC50) on BACE1 [2] was 41300 nM.
For `N#Cc1cc(-c2ccc3c(c2)C2(COC(N)=N2)C2(COC2)C2(CCC2)O3)ccc1F` (centres unmarked) [RP 134], on BACE1 [2], the IC50 amounted to 3630 nM.
For the compound `NC1=NC2(CO1)c1cc(Br)ccc1OC1(CCC1)C21COC1` (centres unmarked) [RP 3], the IC50 at BACE1 [2] worked out at 33800 nM.
On the same count and under the same terms, in the case of `CC1(C)Oc2ccc(C3=CCCCCC3)cc2C2(COC(N)=N2)C12COC2` (centres unmarked) [RP 165] it was 760 nM; in that of `NC1=NC2(c3cc(Br)ccc3OCC23CC3)c2cccc(F)c21` (centres unmarked) [RP 40, 6′-bromo-4″-fluorodispiro[cyclopropane-1,3′-chromene-4′,1″-isoindol]-3″-amine], 46900 nM.
Take `Cc1cccc(CCc2ccc3c(c2)C2(COC(N)=N2)C2(COC2)CO3)c1` (centres unmarked) [RP 38]: on BACE1 [2], the IC50 turned out to be 17300 nM.
Same read-out and setting: the same measure for `COc1cc(-c2ccc3c(c2)C2(COC(N)=N2)C2(COC2)C(C)(C)O3)c(F)cn1` (centres unmarked) [RP 161]: 1410 nM.
For `CC#Cc1ccnc(-c2ccc3c(c2)C2(COC(N)=N2)C2(COC2)CO3)c1` (centres unmarked) [RP 56], 740 nM corresponded to half-maximal inhibition against BACE1 [1] (IC50).
Take `CC(C)CC1Oc2ccc(Br)cc2C2(COC(N)=N2)C12COC2` (single isomer, unassigned) [RP 13b]: the IC50 on BACE1 [2] came out at 19300 nM.
Consider `NC1=NC2(CO1)c1cc(Br)ccc1OC(C1CC1)C21COC1` (single isomer, unassigned) [RP 12b], for which, on BACE1 [2], the IC50 amounted to 81300 nM.
On the same count and under the same terms, in the case of `NC1=NC2(COC1)c1cc(Br)ccc1OCC21CC1` (centres unmarked) [RP 214, 6′-bromo-6″H-dispiro[cyclopropane-1,3′-chromene-4′,3″-[1,4]oxazin]-5″-amine] it was 40300 nM.
For the compound `COc1cnc(C(=O)Nc2ccc3c(c2)C2(COC(N)=N2)C2(COC2)C(C)(C)O3)cn1` (stereo in doubt) [Example 229a, N-[(4S)-2-amino-2′,2′-dimethyldispiro[1,3-oxazole-4,4′-chromene-3′,3″-oxetan]-6′-yl]-5-methoxypyrazine-2-carboxamide], the inhibition at 30 µM at BACE1 [2] (read-out: Test Example 1 inhibition) is 47.6%.
Take `CCCC1Oc2ccc(Br)cc2C2(C=C(N)OC2)C12COC2` (single isomer, unassigned) [RP 11a]: the IC50 at BACE1 [2] is 15600 nM.
`NC1=NC2(CO1)c1cc(-c3ccccc3F)ccc1OC1(CCC1)C21COC1` (centres unmarked) [RP 124]: on BACE1 [2], the IC50 was 3590 nM.
Regarding `CC1(C)Oc2ccc(-c3cncnc3)cc2C2(COC(N)=N2)C12COC2` (single isomer, unassigned) [RP 51a, 2′,2′-dimethyl-6′-(pyrimidin-5-yl)dispiro[1,3-oxazole-4,4′-chromene-3′,3″-oxetan]-2-amine], the IC50 on BACE1 [2] was found to be 48600 nM.
In the case of `NC1=NC2(CO1)c1cc(Br)ccc1OC(CCC(F)(F)F)C21COC1` (single isomer, unassigned) [RP 14a], the 50% inhibitory concentration (IC50) at BACE1 [2] worked out at 19000 nM.
Regarding `NC1=NC2(c3cc(Br)ccc3OCC23CC3)C(F)(F)CO1` (centres unmarked) [RP 216, 6′-bromo-5″,5″-difluoro-5″,6″-dihydrodispiro[cyclopropane-1,3′-chromene-4′,4″-[1,3]oxazin]-2″-amine], the IC50 on BACE1 [2] was 55800 nM.
Take `NC1=NC2(CO1)c1cc(Br)ccc1OCC21CCCO1` (single isomer, unassigned) [RP 1a, 6′-bromo-4,5-dihydro-3H-dispiro[furan-2,3′-chromene-4′,4″-[1,3]oxazol]-2″-amine]: the IC50 at BACE1 [2] was found to be 73300 nM.
As for `NC1=NC2(CO1)c1cc(Br)ccc1OC(CCC(F)(F)F)C21COC1` (single isomer, unassigned) [RP 14b], the IC50 at BACE1 [2] turned out to be 44200 nM.
Still for that read-out and setting: in the case of `NC1=NC2(CO1)c1cc(-c3ccc(F)nc3)ccc1OC1(CCC1)C21COC1` (centres unmarked) [RP 119] it was 3560 nM; in that of `Cc1ncccc1-c1ccc2c(c1)C1(COC(N)=N1)C1(COC1)C1(CCC1)O2` (centres unmarked) [RP 74], 35400 nM.
